Here are results for two molecules from publication PMC9952136 (Antibiotics, 2023).

Data set [1] relates to broiler CYP2E1. Put plainly: Probe substrate assay of CYP2E1 activity in broiler liver microsomes. It counts as in vitro ADME. On the procedure: Probe drugs: a volume of 0.2 mL cold acetonitrile were added into 0.05 mL microsome incubation solution, then vortexed for 2 min to extract target compounds. […] The supernatant was filtered through a 0.2 μm filter.
On the technique in general: Liver microsomes are a subcellular fraction often used to study metabolism.

For data set [2], the system named is CYP3A4 (broiler). Kind of data set: Probe substrate (testosterone) assay of CYP3A4 activity in broiler liver microsomes. Type of data set: in vitro ADME. The conditions noted are these: broiler, chicken (broiler), microsomes. On the procedure:
(§1) Probe drugs: a volume of 0.2 mL cold acetonitrile were added into 0.05 mL microsome incubation solution, then vortexed for 2 min to extract target compounds. The mixture was centrifuged at 12,000 rpm for 15 min. The supernatant was filtered through a 0.2 μm filter.
[…]. […] Except for testosterone, which was incubated for 30 min, all other probe drugs were incubated for 4 h.

Data set [3] deals with broiler CYP2A6. It counts as in vitro ADME. Conditions: microsomes. The procedure: as §1
Data set [4] relates to P-gp. Kind of data set: mRNA and protein expression of P-gp in liver and small intestine of treated broilers. Type of data set: in vivo, broiler. The conditions noted are these: single gavage compared with the saline group. On the procedure: (§2) The relative expressions of CYP3A4, P-gp and BCRP in tissue of broiler and Caco-2 were evaluated via quantitative real-time PCR (RT–qPCR, Bio-Rad, Hercules, CA, USA). […] Relevant cells were treated as indicated and total RNA was extracted from cells and tissue using RNA isolater Total RNA Extraction Reagent (R401-01, Vazyme Biotech Co., Ltd., Nanjing, China) following the manufacturer’s protocols, then reverse-transcribed into cDNA using HiScript II Q Select RT SuperMix for Qpcr (R233-01, Vazyme Biotech Co., Ltd.). The cDNA was determined by quantitative RT-PCR using 2 × AceQ qPCR SYBR Green Master Mix (Q141-02, Vazyme Biotech Co., Ltd.) with the primers (listed in Supplementary Tables S1 and S2). All data were analyzed using the 2−ΔΔCt method.
(§3) These were then collected in a RIPA lysis buffer (P0013B, Beyotime, Shanghai, China) and incubated on a rocker with ice for 30 min. […] Proteins were transferred into a polyvinylidene fluoride (PVDF) membrane (Bio-Rad) and then incubated with the CYP3A4 Rabbit pAb (Cat#A2544, ABclonal, Wuhan, China), ABCG2 Rabbit pAb (Cat#A5661, ABclonal, Wuhan, China), P-gp Rabbit pAb (Cat#A11747, ABclonal, Wuhan, China) over night, respectively. […] The immunoreactive bands were visualized on a gel imaging system (Tanon 5200 Multi, Tanon Technology Co., Ltd., Shanghai, China), and the intensities of the immunoreactive bands were quantified using Quantity One.

In data set [5] the test system is BCRP. Put plainly: mRNA and protein expression of BCRP in liver and small intestine of treated broilers. Type of data set: in vivo, broiler. On the procedure: as §2, §3
For data set [6] the following is noted: in vivo, po, 6 mg/kg.
Protocol: (§4) Mobile phase compositions were 0.5 mol/L H3PO4-triethylamine (pH = 2.4, phase A) and acetonitrile (phase B) (82:18, v/v) [1, 18].
(§5) SAL (Shandong Lukang, Jining, China): The LC-MS/MS assay method for SAL were introduced in the previous research [21]. The separate system of HPLC used 0.1% formic acid solution (phase A) and methanol (phase B) as mobile phase. […] Positive ion scanning mode was used; DP, CE, and CXP are 59.1 V, 65.64 V, and 12 V, respectively.
(§6) Plasma sample: Add 0.8 mL of acetonitrile to 0.2 mL of plasma to precipitate proteins. After vortexing the mixture for 5 min, centrifuge at 12,000 rpm for 10 min. Transfer the supernatant to a new 10 mL tube. The supernatant was blown dry with nitrogen at 40 °C, and the pellet was redissolved with 1 mL of methanol. The methanol reconstituted solution was filtered through a 0.2 μm filter.
(§7) PK parameters were calculated with WinNonlin software using non-compartmental settings (version 6.4; Pharsight Corporation, Mountain View, CA, USA).
The subject of data set [7] is P-gp. The arrangement: method as in PMID 30989413. Conditions: cited from earlier work.
For data set [8], the system named is human P-gp. Further details: method as in PMID 21573958. Conditions: compared with P-gp inhibitor verapamil (Ver); cited from earlier work.
A short description of data set [9]: in vivo. The conditions noted are these: po, 6 mg/kg.
Protocol: as §4, §5, §6, §7
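Throughout, for AUC0-48h: plasma drug levels measured by HPLC or LC-MS/MS, with PK parameters obtained through non-compartmental analysis in WinNonlin.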
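Throughout, for AUC0-∞: plasma drug levels measured by HPLC or LC-MS/MS, with PK parameters obtained through non-compartmental analysis in WinNonlin.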
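Throughout, for MRT0-48h: plasma drug levels measured by HPLC or LC-MS/MS, with PK parameters obtained through non-compartmental analysis in WinNonlin.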
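Throughout, for MRT0-∞: plasma drug levels measured by HPLC or LC-MS/MS, with PK parameters obtained through non-compartmental analysis in WinNonlin.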

`CC[C@@H](C(=O)[C@@H](C)[C@@H](O)[C@H](C)CCc1ccc(C)c(O)c1C(=O)O)[C@H]1O[C@](CC)([C@H]2CC[C@](O)(CC)[C@H](C)O2)C[C@@H]1C` [LAS, lasalocid]: the “effect on CYP2E1 activity” value in data set [1] is “inductive effects”.

As usually defined, the inhibition is the drop in the measured response relative to a control, in per cent. Read a low inhibition as little suppression. For orientation: Tmax means the time at which the peak concentration occurs. By half-life is commonly meant the time needed for the level to fall by half in the phase considered. A higher half-life goes with slow decline. With `CC[C@@H](C(=O)[C@@H](C)[C@@H](O)[C@H](C)[C@@H]1O[C@@H]([C@@H](CC)C(=O)O)CC[C@@H]1C)[C@H]1O[C@]2(C=C[C@@H](O)[C@]3(CC[C@@](C)([C@H]4CC[C@](O)(CC)[C@H](C)O4)O3)O2)[C@H](C)C[C@@H]1C` [SAL, salinomycin], the inhibition at 30 min, 100 µmol/L in data set [2] worked out at 52%. Besides, in data set [3], the “effect on CYP2A6 activity” value is reported as “inductive effects”. Besides, in [4], the “effect on P-gp gene expression levels in the liver and small intestine” value was “suppress”. The “effect of SAL on expression of BCRP” value in data set [5] (ENR + SAL group compared with single ENR group) is listed as “significantly inhibited”. For the same molecule, in data set [5] (SAL (5d) + ENR group compared with single ENR group), the “effect of SAL on expression of BCRP” value is “significantly induced”. Also, in [6] (AA broiler), the MRT0-48h was 5.53 ± 1.16 h and the “MRT0-∞” value turned out to be 7.53 ± 2.39 h. Also, in [6] (AA), the AUC0-48h stood at 0.21896 ± 0.04232 µg·h/mL and the “AUC0-∞” value came to 0.26478 ± 0.0406 µg·h/mL. Further, in [7] (5 μM SAL, 30 min and 1 h), the “effect on P-gp in A549 cells” value was “no significant effect”. For the same molecule, in data set [7] (SAL treatment for 72 h), the “effect on expression of P-gp in A549 cells” value was “significantly induced”. Further, the “inhibition of human P-gp” value in data set [8] is “effectively inhibit”. The k el in data set [9] (AA broiler, Ke) was 1.39e-05 s⁻¹. For the same molecule, in [9] (AA, Tmax), the Tmax is 0.42 ± 0.3 h. In [9] (AA, t1/2), the half-life was 14.2 ± 3.1 h.
